We go through three molecules from publication PMC8329713, “The identification and structural analysis of potential 14-3-3 interaction sites on the bone regulator protein Schnurri-3” (Acta Crystallographica. Section F, Structural Biology …, 2021).

Non-standard residues stand in square brackets, D forms with d. No end group written: not given here. pS = N[C@@H](COP(=O)(O)O)C(=O)O

For assay [1], the target named is T1, 14-3-3σ (Homo sapiens, UniProt P31947).
T1 construct: The full-length 14-3-3 isoforms were used in biophysical assays; His6 (cleaved yes); made in house; host or cells: Escherichia coli NiCo21(DE3)
T1 sequence (P31947 1-248): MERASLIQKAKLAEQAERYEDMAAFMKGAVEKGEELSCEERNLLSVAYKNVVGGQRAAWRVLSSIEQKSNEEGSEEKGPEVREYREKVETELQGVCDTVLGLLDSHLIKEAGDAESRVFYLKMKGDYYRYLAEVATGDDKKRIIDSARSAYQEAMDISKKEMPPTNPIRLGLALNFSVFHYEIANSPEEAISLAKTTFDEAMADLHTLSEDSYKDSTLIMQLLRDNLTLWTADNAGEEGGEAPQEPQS
Description: Isothermal titration calorimetry (ITC) under reducing conditions, 14-3-3σ. It counts as binding. The note with it: FITC-labelled peptide titrated into 14-3-3σ, 18 injections of 2 µl, 25°C, 50 mM Tris pH 7.5, 150 mM NaCl, 5 mM MgCl2, 2 mM 2-mercaptoethanol, 0.05%(v/v) Tween-20. On the procedure:
(§1) 14-3-3 isoforms γ, τ, σ, ɛ, η, ζ, β (full length) and 14-3-3σΔC (residues 231–248 deleted) were expressed with a His6 tag in Escherichia coli NiCo21(DE3) competent cells from a pPRoeX-Htb vector in 2×TY medium. Purification was carried out by affinity chromatography on nickel columns (HisTrap HP, 5 ml). The tags were cleaved with TEV protease. The proteins were then loaded again onto nickel columns to remove any noncleaved protein. A final purification step was performed by loading the proteins onto a size-exclusion chromatography column (HiLoad 26/600 Superdex 75 pg) equilibrated in 20 mM Tris–HCl pH 7.5, 150 mM NaCl, 2 mM DTT. All purification steps were performed on an ÄKTApure protein-purification system (Cytiva). The full-length 14-3-3 isoforms were used in biophysical assays and the 14-3-3σΔC construct was used for crystallographic purposes. […]
(§2) Fluorescence polarization (FP) binding assays were carried out in Corning 384-well 3575 plates, serially diluting (twofold) the 14-3-3 isoforms in the presence of 10 nM FITC-labelled peptides. […] The data were collected on a PHERAstar FSX plate reader (BMG Labtech) with an excitation wavelength of 485 nm and an emisson wavelength of 520 nm. […] The data were analysed using the MicroCal PEAQ-ITC Analysis Software (Malvern).

The test system of a further assay is 14-3-3 isoforms. Description: Fluorescence polarization (FP) binding assay, all 14-3-3 isoforms taken together. Details: species or system human. Particulars: FITC-labelled peptide 10 nM, only a modest FP signal at the highest concentrations, not possible to calculate Kd values. How it is done:
as §1, §2

Assay [2] deals with T1, 14-3-3σ. Description: X-ray protein crystallography with 14-3-3σΔC. Particulars: crystal structures with 14-3-3σΔC, PDB 7b13 (SHN3pS542) and 7b15 (SHN3pT869). How it is done:
14-3-3 isoforms γ, τ, σ, ɛ, η, ζ, β (full length) and 14-3-3σΔC (residues 231–248 deleted) were expressed with a His6 tag in Escherichia coli NiCo21(DE3) competent cells from a pPRoeX-Htb vector in 2×TY medium. Purification was carried out by affinity chromatography on nickel columns (HisTrap HP, 5 ml). The tags were cleaved with TEV protease. The proteins were then loaded again onto nickel columns to remove any noncleaved protein. A final purification step was performed by loading the proteins onto a size-exclusion chromatography column (HiLoad 26/600 Superdex 75 pg) equilibrated in 20 mM Tris–HCl pH 7.5, 150 mM NaCl, 2 mM DTT. All purification steps were performed on an ÄKTApure protein-purification system (Cytiva). The full-length 14-3-3 isoforms were used in biophysical assays and the 14-3-3σΔC construct was used for crystallographic purposes.
The peptides SHN3pS542 (LLRSHpS542MPSAAC) and SHN3pT869 (PDRPDpT869EPEPPP) were ordered with a purity of >95% from GenScript in an N-terminally acetylated version and an N-terminally FITC-Ahx-labelled version.
For protein crystallization, a C-terminally truncated version of 14-3-3σ was used (14-3-3σΔC; deletion of the 17 C-terminal amino acids; Schumacher et al., 2010[▸]). […]

A further assay concerns the target T2, 14-3-3γ (full length) (human, UniProt P61981 1-247).
T2 construct: 14-3-3 protein gamma, human, full length; Expressed from a pPRoeX-Htb vector; also called 14-3-3 isoform γ; source: E. coli NiCo21(DE3), purified (nickel column, TEV cleavage, second nickel column, SEC)
T2 sequence (looked up): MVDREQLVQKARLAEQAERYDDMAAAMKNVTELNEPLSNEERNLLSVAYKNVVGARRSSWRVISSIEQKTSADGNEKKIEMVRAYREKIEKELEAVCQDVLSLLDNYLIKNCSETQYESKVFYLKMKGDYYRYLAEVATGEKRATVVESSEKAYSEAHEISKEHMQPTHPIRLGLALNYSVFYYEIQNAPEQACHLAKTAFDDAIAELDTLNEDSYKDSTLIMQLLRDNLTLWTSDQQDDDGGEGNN
Description: ITC; peptide titrated into the cell containing the 14-3-3 protein, 18 injections of 2 µl, 25°C; 50 mM Tris pH 7.5, 150 mM NaCl, 5 mM MgCl2, 2 mM 2-mercaptoethanol, 0.05% Tween-20 (reducing conditions). The note with it: both partners purified. A general note: Isothermal titration calorimetry measures the heat released or taken up as one component is titrated into another.

For the next assay, the target named is T3, 14-3-3σ (full length) (human, UniProt P31947 1-248).
T3 construct: 14-3-3 protein sigma, human, full length; Expressed from a pPRoeX-Htb vector; also called 14-3-3 isoform σ; the σ isoform; source: E. coli NiCo21(DE3), purified (nickel column, TEV cleavage, second nickel column, SEC)
T3 sequence (looked up): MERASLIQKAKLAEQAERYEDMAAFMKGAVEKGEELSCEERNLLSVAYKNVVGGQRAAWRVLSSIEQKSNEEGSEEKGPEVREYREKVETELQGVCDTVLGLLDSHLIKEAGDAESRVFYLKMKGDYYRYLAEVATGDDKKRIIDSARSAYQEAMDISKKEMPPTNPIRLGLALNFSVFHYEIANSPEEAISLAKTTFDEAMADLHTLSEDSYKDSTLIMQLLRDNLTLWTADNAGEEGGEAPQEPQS
The description is as above. The note with it: both partners purified.

“LLRSHpS542MPSAAC [SHN3pS542-FITC, N-terminally FITC-Ahx-labelled version of SHN3pS542, as used in the FP assay]” registered a Kd at 14-3-3σ [1] of 4.8 ± 0.8 µM.
As for “PDRPDpT869EPEPPP [SHN3pT869, synthetic phosphopeptide PDRPDpT869EPEPPP derived from human Schnurri-3 (SHN3)]”, in the assay with 14-3-3 isoforms, the “binding to 14-3-3 isoforms (in words)” value was “very weak 14-3-3 binder”. Also, the “polar contacts with 14-3-3σ residues” value at 14-3-3σ [2] was “Polar contacts are established between Glu872 and Glu870 of SHN3pT869 and Asn50, Lys122, Lys49 and Asn175 on the C-terminal side of the peptide and between Asp868 and Pro867 of SHN3pT869 and Asn226 on the N-terminal side of the peptide”.

B1: SHN3pS542 peptide, N-terminally acetylated (peptide)
peptide: Ac-LLRSH[pS]MPSAAC
modifications: also: phosphoserine at 542, position not mapped
notes: Schnurri-3 (SHN3, transcription factor HIVEP3), human, 12-mer around phosphorylated Ser542; also called the acetylated peptide; source: synthetic peptide, bought: GenScript (purity >95%)
Regarding B1, the Kd with 14-3-3γ (full length) stood at 0.69 ± 0.15 µM; with 14-3-3σ (full length), 5.8 ± 1.3 µM.

As usually defined, the Kd is the equilibrium constant for the complex coming apart. Higher therefore signals a looser complex.
